Article PMC8371461 (Frontiers in Pharmacology, 2021)

Experiments:
[1] = biological target: T1, DMPK (Homo sapiens, UniProt Q09013); assay: kinome scan; assay type: binding; details: 10 µM
T1 construct: purchased DiscoverX (KINOMEscan)

[2] = biological target: T2, EGFR(L861Q) (Homo sapiens, UniProt P00533, L861Q); assay: kinome scan; assay type: binding; details: 10 µM
T2 construct: purchased DiscoverX (KINOMEscan)

[3] = biological target: T3, EGFR(L747-E749delA750P) (Homo sapiens, UniProt P00533, A750P/DEL747-749); assay: kinome scan; assay type: binding; details: 10 µM
T3 construct: purchased DiscoverX (KINOMEscan)
T3 sequence (P00533 with tags, fused parts or gaps DEL747-749/A750P limits assumed): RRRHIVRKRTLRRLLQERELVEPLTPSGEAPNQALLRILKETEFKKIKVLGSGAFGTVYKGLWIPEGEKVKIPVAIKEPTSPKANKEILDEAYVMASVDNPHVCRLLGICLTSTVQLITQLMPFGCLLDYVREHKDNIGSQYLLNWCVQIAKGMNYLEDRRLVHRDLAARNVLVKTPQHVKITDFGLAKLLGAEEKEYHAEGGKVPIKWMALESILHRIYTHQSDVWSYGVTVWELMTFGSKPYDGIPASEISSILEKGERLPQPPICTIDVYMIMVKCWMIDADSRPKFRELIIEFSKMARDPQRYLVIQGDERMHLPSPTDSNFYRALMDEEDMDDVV

[4] = biological target: T4, ACVR2B (Homo sapiens, UniProt Q13705); assay: kinome scan; assay type: binding; details: 10 µM
T4 construct: purchased DiscoverX (KINOMEscan)

[5] = biological target: T5, TNNI3K (Homo sapiens, UniProt Q59H18); assay: kinome scan; assay type: binding; details: 10 µM
T5 construct: purchased DiscoverX (KINOMEscan)

[6] = biological target: T6, RIPK1 (Homo sapiens, UniProt Q13546); assay: kinome scan; assay type: binding; details: 10 µM
T6 construct: purchased DiscoverX (KINOMEscan)

[7] = biological target: T7, DYRK1B (Homo sapiens, UniProt Q9Y463); assay: kinome scan; assay type: binding; details: 10 µM
T7 construct: purchased DiscoverX (KINOMEscan)
T7 sequence (Q9Y463 whole entry): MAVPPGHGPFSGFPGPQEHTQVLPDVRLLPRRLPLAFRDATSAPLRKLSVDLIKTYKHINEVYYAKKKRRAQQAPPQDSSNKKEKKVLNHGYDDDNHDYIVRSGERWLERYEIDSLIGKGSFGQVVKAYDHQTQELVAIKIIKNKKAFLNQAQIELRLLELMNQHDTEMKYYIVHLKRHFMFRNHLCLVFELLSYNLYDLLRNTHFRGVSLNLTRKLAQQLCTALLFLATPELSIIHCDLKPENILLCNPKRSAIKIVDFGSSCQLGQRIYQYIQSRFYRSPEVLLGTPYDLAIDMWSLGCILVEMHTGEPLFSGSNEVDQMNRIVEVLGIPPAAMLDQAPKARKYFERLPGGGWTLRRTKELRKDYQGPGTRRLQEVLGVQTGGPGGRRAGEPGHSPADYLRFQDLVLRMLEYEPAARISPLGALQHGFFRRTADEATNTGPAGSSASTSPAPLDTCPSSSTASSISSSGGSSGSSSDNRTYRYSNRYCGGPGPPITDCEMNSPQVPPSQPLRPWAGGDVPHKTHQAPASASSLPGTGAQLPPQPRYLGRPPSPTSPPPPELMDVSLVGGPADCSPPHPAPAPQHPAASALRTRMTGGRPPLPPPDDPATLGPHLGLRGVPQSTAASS

[8] = biological target: T8, CDK2 (Homo sapiens, UniProt P24941); assay: kinome scan; assay type: binding; details: 10 µM
T8 construct: purchased DiscoverX (KINOMEscan)

[9] = biological target: T9, EPHB6 (Homo sapiens, UniProt O15197); assay: kinome scan; assay type: binding; details: 10 µM
T9 construct: purchased DiscoverX (KINOMEscan)

[10] = biological target: T10, ZAK (Homo sapiens, UniProt Q9NYL2); assay: kinome scan; assay type: binding; details: 10 µM
T10 construct: purchased DiscoverX (KINOMEscan)

[11] = biological target: T11, NEK4 (Homo sapiens, UniProt P51957); assay: kinome scan; assay type: binding; details: 10 µM
T11 construct: purchased DiscoverX (KINOMEscan)
T11 sequence (P51957 whole entry): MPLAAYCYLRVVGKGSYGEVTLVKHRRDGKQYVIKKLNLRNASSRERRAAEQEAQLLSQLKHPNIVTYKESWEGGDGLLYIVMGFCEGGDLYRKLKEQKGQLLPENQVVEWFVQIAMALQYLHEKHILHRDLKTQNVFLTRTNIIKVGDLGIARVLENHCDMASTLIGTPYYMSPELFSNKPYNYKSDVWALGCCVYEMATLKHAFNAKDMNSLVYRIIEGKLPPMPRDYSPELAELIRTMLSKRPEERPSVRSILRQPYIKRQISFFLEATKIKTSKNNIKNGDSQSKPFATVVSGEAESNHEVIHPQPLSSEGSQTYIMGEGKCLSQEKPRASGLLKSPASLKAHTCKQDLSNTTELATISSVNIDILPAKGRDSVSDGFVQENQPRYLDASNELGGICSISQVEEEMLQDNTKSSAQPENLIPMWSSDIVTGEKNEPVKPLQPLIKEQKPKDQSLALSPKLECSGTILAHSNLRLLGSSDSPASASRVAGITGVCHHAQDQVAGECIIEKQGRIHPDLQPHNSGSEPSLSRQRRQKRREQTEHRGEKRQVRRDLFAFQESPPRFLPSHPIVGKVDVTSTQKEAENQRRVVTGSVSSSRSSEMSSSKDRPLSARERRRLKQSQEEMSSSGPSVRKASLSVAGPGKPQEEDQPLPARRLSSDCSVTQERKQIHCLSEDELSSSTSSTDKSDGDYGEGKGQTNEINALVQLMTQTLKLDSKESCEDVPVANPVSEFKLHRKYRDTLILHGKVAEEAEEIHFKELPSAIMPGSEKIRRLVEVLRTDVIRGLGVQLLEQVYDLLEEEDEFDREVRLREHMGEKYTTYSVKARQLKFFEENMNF

[12] = biological target: T12, FLT3(K663Q) (Homo sapiens, UniProt P36888, K663Q); assay: kinome scan; assay type: binding
T12 construct: purchased DiscoverX (KINOMEscan)

[13] = test system: CGR8EF1αS,RLuc-Tα1,FLuc cells; assay: neural differentiation, Dual Luciferase Reporter Assay (FLuc/RLuc); assay type: cell-based, mouse; details: 72 h, normalized to DMSO
Protocol: The CGR8 mouse PSC were cultured as described ([Suter et al., 2009]). For neural induction, CGR8 cells were plated in 96-well plates at a density of 10,000 cells/cm^2 on gelatine-coated cell culture plates, in differentiation medium [BHK-21 medium supplemented with 20% foetal calf serum (Thermofisher), L-glutamine 2 mM (Thermofisher), non-essential amino acids (1X, Thermofisher), sodium pyruvate 1 mM (Thermofisher), penicillin/streptomycin 50 U/ml (Thermofisher)]. CGR8EF1αS,RLuc-Tα1,FLuc cells were described in ([Suter et al., 2009]) and were cultured as described above. Luminescence assays were directly performed in 96-well plates with the Dual Luciferase Reporter Assay System (Promega) according to the manufacturer’s instructions. Luminescence was measured with the SpectraMax L Microplate luminometer (Molecular Devices). Cell viability in the wells was measured by the addition of propidium iodide 1 µg/ml in 100 µL of PBS and fluorescence was assessed in each well using a FluoStar Optima reader (Pharmaceutical Technology Group at the University of Geneva).
The CGR8 PSC line was stably transduced with a dual promoter/reporter gene construct containing a ubiquitous promoter (EF1αS) controlling the expression of Renilla Luciferase (RLuc) and also an early neural-specific promoter (Tα1), controlling the expression of Firefly Luciferase (FLuc). […]

[14] = biological target: T13, GRK7 (Homo sapiens, UniProt Q8WTQ7); assay: kinome scan; assay type: binding; details: 10 µM
T13 construct: purchased DiscoverX (KINOMEscan)
T13 sequence (Q8WTQ7 whole entry): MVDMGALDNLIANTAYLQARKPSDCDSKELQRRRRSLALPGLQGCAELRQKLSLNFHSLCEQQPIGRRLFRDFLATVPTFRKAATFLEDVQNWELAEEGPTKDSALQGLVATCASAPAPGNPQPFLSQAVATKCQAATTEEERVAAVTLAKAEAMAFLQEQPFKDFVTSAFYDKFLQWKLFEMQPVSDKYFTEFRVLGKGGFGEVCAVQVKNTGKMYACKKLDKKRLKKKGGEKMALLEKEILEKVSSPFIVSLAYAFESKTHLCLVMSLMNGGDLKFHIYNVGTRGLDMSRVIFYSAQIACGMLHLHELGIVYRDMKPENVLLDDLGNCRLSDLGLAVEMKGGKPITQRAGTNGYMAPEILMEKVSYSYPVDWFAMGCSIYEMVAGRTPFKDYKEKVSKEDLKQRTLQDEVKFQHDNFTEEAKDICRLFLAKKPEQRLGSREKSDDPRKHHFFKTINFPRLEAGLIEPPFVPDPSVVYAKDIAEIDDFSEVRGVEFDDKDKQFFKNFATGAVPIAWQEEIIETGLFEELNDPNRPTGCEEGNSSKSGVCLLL

[15] = biological target: T14, ADCK4 (Homo sapiens, UniProt Q96D53); assay: kinome scan; assay type: binding; details: 10 µM
T14 construct: purchased DiscoverX (KINOMEscan)

[16] = biological target: T15, RIOK1 (Homo sapiens, UniProt Q9BRS2); assay: kinome scan; assay type: binding; details: 10 µM
T15 construct: purchased DiscoverX (KINOMEscan)

[17] = biological target: T16, EGFR(L858RT790M) (Homo sapiens, UniProt P00533, L858R/T790M); assay: kinome scan; assay type: binding; details: 10 µM
T16 construct: purchased DiscoverX (KINOMEscan)

[18] = biological target: T17, CLK1 (Homo sapiens, UniProt P49759); assay: kinome scan; assay type: binding; details: 10 µM
T17 construct: purchased DiscoverX (KINOMEscan)

[19] = biological target: Mitogen-activating protein kinase interacting Ser/Thr kinase (MNK2) (Homo sapiens, UniProt Q9HBH9); assay: Dundee activity test; assay type: biochemical
Description: (§1) In silico inverse screening is a ligand-driven methodology aiming at identifying a specific target for a given ligand. […] Table 2 contains for each kinase the name and acronym, the PDB identifier of the best-ranked structure, the ranking position in percent, the heavy atom RMSD of the co-crystallized ligand as a control, and the experimental confirmation from the kinome scan by Ambit Biosciences (http://www.ambitbio.com/) performed at the University of Dundee according to a previously described procedure ([Bain et al., 2003]).

[20] = biological target: Proto-oncogen Ser/Thr kinase PIM1 (PIM1) (Homo sapiens, UniProt P11309); assay: Dundee activity test; assay type: biochemical
Description: as §1

[21] = biological target: T18, PIM3 (Homo sapiens, UniProt Q86V86); assay: kinome scan; assay type: binding; details: 10 µM
T18 construct: purchased DiscoverX (KINOMEscan)

[22] = biological target: T19, SNRK (Homo sapiens, UniProt Q9NRH2); assay: kinome scan; assay type: binding; details: 10 µM
T19 construct: purchased DiscoverX (KINOMEscan)

[23] = biological target: T20, MAP3K15 (Homo sapiens, UniProt Q6ZN16); assay: kinome scan; assay type: binding; details: 10 µM
T20 construct: purchased DiscoverX (KINOMEscan)

[24] = biological target: T21, CLK2 (Homo sapiens, UniProt P49760); assay: kinome scan; assay type: binding; details: 10 µM
T21 construct: purchased DiscoverX (KINOMEscan)

[25] = biological target: T22, PRKCH (Homo sapiens, UniProt P24723); assay: kinome scan; assay type: binding; details: 10 µM
T22 construct: purchased DiscoverX (KINOMEscan)

[26] = biological target: T23, PIM2 (Homo sapiens, UniProt Q9P1W9); assay: kinome scan; assay type: binding; details: 10 µM
T23 construct: purchased DiscoverX (KINOMEscan)
T23 sequence (Q9P1W9 whole entry): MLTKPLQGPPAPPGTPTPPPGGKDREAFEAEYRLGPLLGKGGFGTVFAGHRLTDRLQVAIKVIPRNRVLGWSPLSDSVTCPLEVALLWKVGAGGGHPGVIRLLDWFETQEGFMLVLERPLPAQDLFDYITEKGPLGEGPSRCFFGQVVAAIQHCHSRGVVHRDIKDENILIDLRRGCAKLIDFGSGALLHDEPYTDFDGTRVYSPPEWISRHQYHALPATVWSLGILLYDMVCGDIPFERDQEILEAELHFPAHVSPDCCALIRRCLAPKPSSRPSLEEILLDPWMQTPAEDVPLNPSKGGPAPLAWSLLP

[27] = test system: PSC; assay: LC3B positive autophagosomes, immunofluorescent staining; assay type: cell-based, mouse; details: 10 µM, three days
Protocol: Cells were fixed with PBS containing 0.5% of para-formaldehyde for 15 min at room temperature. After three washing steps in PBS, cells were permeabilized with PBS containing 0.3% of Triton X-100 (Sigma) for 1 h at room temperature. After washing with PBS three times, cells were incubated overnight with the anti-LC3B antibody in PBS with 1% bovine serum albumin (Sigma) at 4°C. After three washing steps in PBS, cells were incubated with the fluorescent secondary antibody for 90 min at 4°C in PBS with 1% bovine serum albumin. They were then incubated with […] DAPI (Thermofisher) in PBS for 15 min. After washing with PBS, cells were rinsed once in water prior to mounting in the FluorSave reagent (Millipore).
Depending of these transitory environmental conditions, autophagy can either promote survival or apoptosis ([Degtyarev et al., 2008]). PIK/AKT pathway inhibition has been reported to increase cell autophagy ([Palmieri et al., 2017]). More specifically, PIP4K2C has been described as a down-regulator of autophagy ([Sharma et al., 2019]).

[28] = biological target: T24, FGFR3(G697C) (Homo sapiens, UniProt P22607, G697C); assay: kinome scan; assay type: binding; details: 10 µM
T24 construct: purchased DiscoverX (KINOMEscan)

[29] = biological target: T25, INSR (Homo sapiens, UniProt P06213); assay: kinome scan; assay type: binding; details: 10 µM
T25 construct: purchased DiscoverX (KINOMEscan)
T25 sequence (P06213 28-1382): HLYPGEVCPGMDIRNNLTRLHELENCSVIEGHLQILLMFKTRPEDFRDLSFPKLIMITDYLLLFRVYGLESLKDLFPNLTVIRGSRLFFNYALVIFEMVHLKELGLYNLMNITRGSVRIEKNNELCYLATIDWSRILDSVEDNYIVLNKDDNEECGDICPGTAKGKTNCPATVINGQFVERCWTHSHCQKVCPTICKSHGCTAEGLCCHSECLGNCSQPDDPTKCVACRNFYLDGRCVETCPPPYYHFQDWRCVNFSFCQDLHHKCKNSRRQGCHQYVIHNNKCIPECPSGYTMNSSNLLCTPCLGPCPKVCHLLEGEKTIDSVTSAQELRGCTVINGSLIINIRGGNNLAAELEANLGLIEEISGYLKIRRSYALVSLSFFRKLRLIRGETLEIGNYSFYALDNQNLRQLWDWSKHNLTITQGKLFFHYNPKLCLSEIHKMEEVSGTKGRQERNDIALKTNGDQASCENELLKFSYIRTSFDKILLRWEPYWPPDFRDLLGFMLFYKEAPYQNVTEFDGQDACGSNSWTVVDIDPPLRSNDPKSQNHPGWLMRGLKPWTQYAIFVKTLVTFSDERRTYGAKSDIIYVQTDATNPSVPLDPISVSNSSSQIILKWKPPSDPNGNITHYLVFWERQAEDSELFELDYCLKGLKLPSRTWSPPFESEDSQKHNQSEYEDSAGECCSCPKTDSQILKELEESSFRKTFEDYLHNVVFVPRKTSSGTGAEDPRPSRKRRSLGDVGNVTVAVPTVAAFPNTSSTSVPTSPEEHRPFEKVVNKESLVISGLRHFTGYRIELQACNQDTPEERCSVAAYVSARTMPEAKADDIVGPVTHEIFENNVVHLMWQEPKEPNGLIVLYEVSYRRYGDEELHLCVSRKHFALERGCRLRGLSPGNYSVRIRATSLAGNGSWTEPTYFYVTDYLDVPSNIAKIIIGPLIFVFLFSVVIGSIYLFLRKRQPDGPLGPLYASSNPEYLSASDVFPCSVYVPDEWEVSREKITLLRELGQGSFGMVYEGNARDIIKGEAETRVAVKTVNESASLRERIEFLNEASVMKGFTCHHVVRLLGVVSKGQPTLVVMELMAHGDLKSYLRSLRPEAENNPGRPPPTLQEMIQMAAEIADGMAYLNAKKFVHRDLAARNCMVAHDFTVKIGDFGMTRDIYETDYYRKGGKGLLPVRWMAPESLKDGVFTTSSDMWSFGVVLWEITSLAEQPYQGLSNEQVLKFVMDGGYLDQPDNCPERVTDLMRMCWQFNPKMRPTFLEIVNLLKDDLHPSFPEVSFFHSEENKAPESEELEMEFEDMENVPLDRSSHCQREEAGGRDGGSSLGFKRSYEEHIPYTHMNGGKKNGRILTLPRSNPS

[30] = biological target: T26, TNK2 (Homo sapiens, UniProt Q07912); assay: kinome scan; assay type: binding; details: 10 µM
T26 construct: purchased DiscoverX (KINOMEscan)

[31] = biological target: T27, FLT3(D835H) (Homo sapiens, UniProt P36888, D835H); assay: kinome scan; assay type: binding; details: 10 µM
T27 construct: purchased DiscoverX (KINOMEscan)

[32] = biological target: T28, MST4 (Homo sapiens, UniProt Q9P289); assay: kinome scan; assay type: binding; details: 10 µM
T28 construct: purchased DiscoverX (KINOMEscan)

[33] = biological target: T29, PIK3CD (Homo sapiens, UniProt O00329); assay: kinome scan; assay type: binding; details: 10 µM
T29 construct: purchased DiscoverX (KINOMEscan)
T29 sequence (O00329 whole entry): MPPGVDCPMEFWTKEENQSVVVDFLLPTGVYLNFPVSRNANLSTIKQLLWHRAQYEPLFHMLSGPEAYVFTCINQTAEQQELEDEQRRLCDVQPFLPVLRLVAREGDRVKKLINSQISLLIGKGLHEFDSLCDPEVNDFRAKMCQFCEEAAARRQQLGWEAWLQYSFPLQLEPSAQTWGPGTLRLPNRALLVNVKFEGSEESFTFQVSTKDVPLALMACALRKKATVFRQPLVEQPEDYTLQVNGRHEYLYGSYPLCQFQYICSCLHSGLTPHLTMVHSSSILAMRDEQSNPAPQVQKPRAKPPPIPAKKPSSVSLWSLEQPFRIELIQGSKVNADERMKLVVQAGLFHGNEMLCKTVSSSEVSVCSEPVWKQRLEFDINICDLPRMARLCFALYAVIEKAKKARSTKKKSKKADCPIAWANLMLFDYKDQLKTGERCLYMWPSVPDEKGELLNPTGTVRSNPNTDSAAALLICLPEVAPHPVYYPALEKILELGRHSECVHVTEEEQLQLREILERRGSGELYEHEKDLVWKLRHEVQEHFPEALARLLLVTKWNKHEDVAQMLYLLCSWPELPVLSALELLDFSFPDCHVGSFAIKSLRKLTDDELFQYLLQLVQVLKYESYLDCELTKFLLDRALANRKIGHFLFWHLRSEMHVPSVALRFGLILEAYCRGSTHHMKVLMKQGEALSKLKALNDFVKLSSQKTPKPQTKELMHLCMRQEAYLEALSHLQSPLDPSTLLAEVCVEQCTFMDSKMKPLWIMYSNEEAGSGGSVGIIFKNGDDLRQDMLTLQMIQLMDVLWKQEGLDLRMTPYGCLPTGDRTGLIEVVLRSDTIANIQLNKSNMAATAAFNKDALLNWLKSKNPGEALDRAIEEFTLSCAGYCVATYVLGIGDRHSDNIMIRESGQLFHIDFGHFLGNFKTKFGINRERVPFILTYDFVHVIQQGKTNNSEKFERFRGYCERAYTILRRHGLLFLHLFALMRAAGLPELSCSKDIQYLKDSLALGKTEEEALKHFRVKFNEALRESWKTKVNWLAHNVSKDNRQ

Nc1ccc(N=Nc2ccccc2)c(N)n1 [phenazopyridine, 2,6-diamino-3-(phenylazo)pyridine] gave a kinase inhibition [1] of 89, a kinase inhibition [2] of 95 and a kinase inhibition [3] of 86. The kinase inhibition [4] was 84, the kinase inhibition [5] was 100 and the “remaining binding (% of control)” value [6] was 100. The “remaining binding (% of control)” value [7] was 69, the kinase inhibition [8] was 82 and the kinase inhibition [9] was 67. For the same molecule, the kinase inhibition [10] was 100, the kinase inhibition [11] was 100 and the “remaining binding (% of control)” value ([12]; FLT3(K663Q), 10 µM) was 21. The remaining binding at 10 µM ([12]; FLT3 as printed (Table S4: FLT3(K663Q)), read-out: % Of control) was 21%, the “concentration at which an increase of the FLuc signal was observed” value [13] was 1 µM and the “concentration of maximal FLuc signal” value [13] was 10 µM. The kinase inhibition [14] was 100, the kinase inhibition [15] was 90 and the “remaining binding (% of control)” value [16] was 93. The kinase inhibition [17] was 100, the kinase inhibition [18] was 91 and the remaining activity at 10 µM [19] was 20%. It also gave a remaining activity at 10 µM [20] of 49%, a kinase inhibition [21] of 100 and a kinase inhibition [22] of 100. It also gave a kinase inhibition [23] of 94, a kinase inhibition [24] of 75 and a kinase inhibition [25] of 78. The kinase inhibition [26] was 100, the “number of LC3B-positive autophagosomes” value [27] was “increased” and the kinase inhibition [28] was 100. The kinase inhibition [29] was 75, the kinase inhibition [30] was 100 and the “remaining binding (% of control)” value [31] was 81. It also gave a kinase inhibition [32] of 96 and a kinase inhibition [33] of 78.
